We go through 15 compounds from patent publication US8883746B2, “α-galactosylceramide derivatives, pharmaceutically acceptable salts thereof, preparation method and pharmaceutical composition for the immune adjuvant containing the same as an active ingredient” (SNU R&DB Foundation, priority 2006, dated 2014).

One data set relates to NKT cells. The conditions noted are these: literature (Goff et al., 2004); cited from earlier work.
The subject of data set [1] is DN32.D3 NKT hybridoma cells. Put plainly: Stimulatory activity for NKT hybridoma cells (IL-2 secretion, ELISA). It is filed as cell-based, mouse. The conditions noted are these: for Stimulatory effect (IL-2) compared to α-GalCer: low concentration (32 ng/mL); for IL-2 production compared to α-GalCer: mouse CD1d-bearing RBL cells loaded 4 hrs, co-incubated with DN32.D3 for 16 hrs, FIG. 1. Here is the method:
Determination of Stimulatory Activity for NKT Hybridoma Cell (Zhou et al., Science, 306:1786-1789, 2004)
Mouse CD1d-bearing rat basophilic leukemia (RBL) cells were incubated with various concentrations of α-GalCer or the α-GalCer derivatives prepared in Examples for 4 hrs. After removing free glycolipids by washing with PBS (phosphate-buffer saline) three times, RBL cells were incubated with DN32.D3 NKT hybridoma cells for 16 hrs. IL-2 secretion levels in the supernatant were determined through ELISA (Enzyme-Linked Immunosorbent Assay).
A general note: An ELISA detects its analyte on a solid surface through an enzyme-linked reagent.

Data set [2] concerns Splenocytes from naïve C57BL/6 mice. As to the kind of experiment: Cytokine levels (IFN-γ, IL-4) produced by mouse splenocytes, ELISA. The conditions noted are these: 72 hrs; for IL-4 production compared with α-GalCer: FIG. 3(b) (2 ng/ml); for IL-4 secretion compared to α-GalCer: high concentrations (125 ng/ml), FIG. 3(a). Format: cell-based. As to the method: Evaluation of Cytokine Levels Produced by Mouse Splenocyte
Splenocytes from naïve C57BL/6 mice were incubated with various concentrations of α-GalCer or α-GalCer derivatives for 72 hrs. IFN-γ and IL-4 secretion levels in the supernatant were determined through ELISA.

Another data set deals with naïve C57BL/6 mice. Put plainly: IFN-γ and IL-4 production level in vivo (serum, ELISA). The conditions noted are these: 1 μg/mouse intravenously. Here is the method: Examination of IFN-γ and IL-4 Production Level In Vivo
α-GalCer or the α-GalCer derivatives (1 μg/mouse) were intravenously injected into naïve C57BL/6 mice. The serum concentrations of IFN-γ and IL-4 at each time point were determined through ELISA.

As to `CCCCCCCCCCCCCC[C@@H](O)[C@@H](O)[C@H](CO[C@H]1O[C@H](CO)[C@H](O)[C@H](O)[C@H]1O)NC(=O)CCCCCCC` [PBS-25], in the data set with NKT cells, the “Secretion of Th2-cytokines compared to α-GalCer” value is given as “greater amount of Th2-cytokines, compared to α-GalCer”.
Turning to `CCCCCCCCCCCCCC[C@@H](O)[C@@H](O)[C@H](CO[C@H]1OC(CO)[C@H](O)[C@H](O)[C@H]1O)NC(=O)CCCCCCCCCCCN` (stereo partly drawn) [Example 11, 12-amino-N-((2S,3S,4R)-3,4-dihydroxy-1-((2S,3R,4S,5R)-3,4,5-trihydroxy-6-(hydroxymethyl)-tetrahydro-2H-pyran-2-yloxy)octadecan-2-yl)dodecanamide], the “Stimulatory effect (IL-2) compared to α-GalCer” value in data set [1] was “comparable stimulatory effects to α-GalCer”. Moreover, in data set [2], the “IL-4 production compared with α-GalCer” value was “more IL-4 production compared with α-GalCer”.
The term melting point denotes the temperature, or range, at which the solid turns liquid. `CCCCCCCCCCCCCCCCCCCCCCCCCc1cn([C@@H](CO[C@H]2OC(CO)[C@H](O)[C@H](O)[C@H]2O)[C@H](O)[C@H](O)CCCCCCCCCCCCCC)nn1` (stereo partly drawn) [Example 6, (2S,3R,4S,5R)-2-((2S,3S,4R)-3,4-dihydroxy-2-(4-pentacosyl-1H-1,2,3-triazol-1-yl)octadecyloxy)-6-(hydroxymethyl)-tetrahydro-2H-pyrane-3,4,5-triol] yielded a melting point of 165 to 167 °C.
`CCCCCCCCCCCCCCCCCCCCCCCCc1cn([C@@H](CO[C@H]2OC(CO)[C@H](O)[C@H](O)[C@H]2O)[C@H](O)[C@H](O)CCCCCCCCCCCCCC)nn1` (stereo partly drawn) [Example 5, (2S,3R,4S,5R)-2-((2S,3S,4R)-3,4-dihydroxy-2-(4-tetracosyl-1H-1,2,3-triazol-1-yl)octadecyloxy)-6-(hydroxymethyl)-tetrahydro-2H-pyrane-3,4,5-triol] returned a melting point of 167 to 169 °C. In addition, the “Stimulatory effect (IL-2) compared to α-GalCer” value in data set [1] is listed as “comparable stimulatory effects to α-GalCer”. Besides, the “IL-4 secretion compared to α-GalCer” value in data set [2] is reported as “equivalent or greater IL-4 secretion than did α-GalCer”.
In the case of `CCCCCCCCCCCCCCCCCCCCCCCc1cn([C@@H](CO[C@H]2OC(CO)[C@H](O)[C@H](O)[C@H]2O)[C@H](O)[C@H](O)CCCCCCCCCCCCCC)nn1` (stereo partly drawn) [Example 4, (2S,3R,4S,5R)-2-((2S,3S,4R)-3,4-dihydroxy-2-(4-tricosyl-1H-1,2,3-triazol-1-yl)octadecyloxy)-6-(hydroxymethyl)-tetranydro-2H-pyrane-3,4,5-triol], in data set [2], the “IL-4 secretion compared to α-GalCer” value is listed as “equivalent or greater IL-4 secretion than did α-GalCer”.
Regarding `CCCCCCCCCCCCCC[C@@H](O)[C@@H](O)[C@H](CO[C@H]1OC(CO)[C@H](O)[C@H](O)[C@H]1O)n1cc(CCCCCCc2ccccc2)nn1` (stereo partly drawn) [Example 7, (2S,3R,4S,5R)-2-((2S,3S,4R)-3,4-dihydroxy-2-(4-(6-phenylhexyl)-1H-1,2,3-triazol-1-yl)octadecyloxy)-6-(hydroxymethyl)-tetrahydro-2H-pyrane-3,4,5-triol], the “IL-2 production compared to α-GalCer” value in data set [1] was “ineffective”.
On the same count and under the same terms, the entry for `CCCCCCCCCCCCCC[C@@H](O)[C@@H](O)[C@H](CO[C@H]1OC(CO)[C@H](O)[C@H](O)[C@H]1O)n1cc(CCCCCCCc2ccccc2)nn1` (stereo partly drawn) [Example 8, (2S,3R,4S,5R)-2-((2S,3S,4R)-3,4-dihydroxy-2-(4-(7-phenylheptyl)-1H-1,2,3-triazol-1-yl)octadecyloxy)-6-(hydroxymethyl)-tetrahydro-2H-pyrane-3,4,5-triol] is “ineffective”.
Regarding `CCCCCCCCCCCCCC[C@@H](O)[C@@H](O)[C@H](CO[C@H]1OC(CO)[C@H](O)[C@H](O)[C@H]1O)NC(=O)CCCCCCCCCCN(CCCCCCC)CCCCCCC` (stereo partly drawn) [Example 16, 11-(diheptylamino)-N-((2S,3S,4R)-3,4-dihydroxy-1-((2S,3R,4S,5R)-3,4,5-trihydroxy-6-(hydroxymethyl)-tetrahydro-2H-pyran-2-yloxy)octadecan-2-yl)undecanamide], the “Stimulatory effect (IL-2) compared to α-GalCer” value in data set [1] is “comparable stimulatory effects to α-GalCer”. In data set [2], the “IL-4 production compared with α-GalCer” value is on record as “more IL-4 production compared with α-GalCer”.
`CCCCCCCCCCCCCC[C@@H](O)[C@@H](O)[C@H](CO[C@H]1OC(CO)[C@H](O)[C@H](O)[C@H]1O)n1cc(CCCCCC)nn1` (stereo partly drawn) [Example 1, (2S,3R,4S,5R)-2-((2S,3S,4R)-2-(4-hexyl-1H-1,2,3-triazol-1-yl)-3,4-dihydroxyoctadecyloxy)-6-(hydroxymethyl)-tetrahydro-2H-pyrane-3,4,5-triol]: the “IL-2 production compared to α-GalCer” value in data set [1] is recorded as “ineffective”.
`CCCCCCCCCCCCCCCCc1cn([C@@H](CO[C@H]2OC(CO)[C@H](O)[C@H](O)[C@H]2O)[C@H](O)[C@H](O)CCCCCCCCCCCCCC)nn1` (stereo partly drawn) [Example 3, (2S,3R,4S,5R)-2-((2S,3S,4R)-2-(4-hexadecyl-1H-1,2,3-triazol-1-yl)-3,4-dihydroxyoctadecyloxy)-6-(hydroxymethyl)-tetrahydro-2H-pyrane-3,4,5-triol] came in with a melting point of 162 to 164 °C. Further, the “IL-2 production compared to α-GalCer” value in data set [1] is “not active in practice”.
Consider `CCCCCCCCCCCCCC[C@@H](O)[C@@H](O)[C@H](CO[C@H]1OC(CO)[C@H](O)[C@H](O)[C@H]1O)NC(=O)CCCCCCCCCCO` (stereo partly drawn) [Example 12, N-((2S,3S,4R)-3,4-dihydroxy-1-((2S,3R,4S,5R)-3,4,5-trihydroxy-6-(hydroxymethyl)-tetrahydro-2H-pyran-2-yloxy)octadecan-2-yl)-11-hydroxyundecanamide], for which, in data set [1], the “Stimulatory effect (IL-2) compared to α-GalCer” value is “comparable stimulatory effects to α-GalCer”.
Regarding `CCCCCCCCCCCCCC[C@@H](O)[C@@H](O)[C@H](CO[C@H]1OC(CO)[C@H](O)[C@H](O)[C@H]1O)n1cc(CCCCCCCCc2ccccc2)nn1` (stereo partly drawn) [Example 9, (2S,3R,4S,5R)-2-((2S,3S,4R)-3,4-dihydroxy-2-(4-(8-phenyloctyl)-1H-1,2,3-triazol-1-yl)octadecyloxy)-6-(hydroxymethyl)-tetrahydro-2H-pyrane-3,4,5-triol], in data set [1], the “IL-2 production compared to α-GalCer” value is reported as “ineffective”.
Consider `CCCCCCCCCCCCCC[C@@H](O)[C@@H](O)[C@H](CO[C@H]1OC(CO)[C@H](O)[C@H](O)[C@H]1O)n1cc(CCCCCCC)nn1` (stereo partly drawn) [Example 2, (2S,3R,4S,5R)-2-((2S,3S,4R)-2-(4-heptyl-1H-1,2,3-triazol-1-yl)-3,4-dihydroxyoctadecyloxy)-6-(hydroxymethyl)-tetrahydro-2H-pyrane-3,4,5-triol], for which, in data set [1], the “IL-2 production compared to α-GalCer” value is “ineffective”. Further, the “IL-4 secretion compared to α-GalCer” value in data set [2] is “equivalent or greater IL-4 secretion than did α-GalCer”.
Take `CCCCCCCCCCCCCC[C@@H](O)[C@@H](O)[C@H](CO[C@H]1OC(CO)[C@H](O)[C@H](O)[C@H]1O)NC(=O)CCCCCCCCCCCO` (stereo partly drawn) [Example 13, N-((2S,3S,4R)-3,4-dihydroxy-1-((2S,3R,4S,5R)-3,4,5-trihydroxy-6-(hydroxymethyl)-tetrahydro-2H-pyran-2-yloxy)octadecan-2-yl)-12-hydroxydodecanamide]: the “IL-4 production compared with α-GalCer” value in data set [2] is on record as “more IL-4 production compared with α-GalCer”.
Consider `CCCCCCCCCCCCCCCCCCCCCCCCCC(=O)N[C@@H](CO[C@H]1O[C@H](CO)[C@H](O)[C@H](O)[C@H]1O)[C@H](O)[C@H](O)CCCCCCCCCCCCCC` [α-GalCer, α-Galactosylceramide], for which, in the data set with naïve C57BL/6 mice, the “Time of peak of serum IFN-γ levels after administration” value is 12 h and the “Time of rapid increase of serum IL-4 levels after administration” value was not above 2 h.
